From ChEMBL document CHEMBL1201862, “PubChem BioAssay data set” (2004)
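All cell lines were grown in 96-well plates and treated with compound for 48 hours. At the GI50, growth is halved.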 Active and inactive are the calls of the source. Rule as the data show it: active = GI50 up to about 1.1 µM and inactive = higher.

Legend:
Assay in all cases: NCI tumour cell line growth inhibition, 48 h
K562 = system: K562
SN12C = system: SN12C
OVCAR-8 = system: OVCAR-8
MCF7 = system: MCF7
MDA-N = system: MDA-N
TK-10 = system: TK-10
M14 = system: M14
786-0 = system: 786-0
RPMI-8226 = system: RPMI-8226
HOP-62 = system: HOP-62
NCI-H23 = system: NCI-H23
U-251 = system: U-251
BT-549 = system: BT-549
MDA-MB-435 = system: MDA-MB-435
NCI-H460 = system: NCI-H460
LOX IMVI = system: LOX IMVI
SNB-75 = system: SNB-75
UO-31 = system: UO-31
SK-MEL-2 = system: SK-MEL-2
HCT-116 = system: HCT-116
MDA-MB-231 = system: MDA-MB-231
Hs-578T = system: Hs-578T
IGROV-1 = system: IGROV-1
A549 = system: A549
HCT-15 = system: HCT-15
RXF 393 = system: RXF 393
NCI-H522 = system: NCI-H522
DU-145 = system: DU-145
HL-60 = system: HL-60
T47D = system: T47D
EKVX = system: EKVX
CCRF-CEM = system: CCRF-CEM
SF-295 = system: SF-295
ACHN = system: ACHN
NCI-H226 = system: NCI-H226
SK-OV-3 = system: SK-OV-3
OVCAR-4 = system: OVCAR-4
SW-620 = system: SW-620
SF-539 = system: SF-539
OVCAR-3 = system: OVCAR-3
UACC-257 = system: UACC-257
OVCAR-5 = system: OVCAR-5
SK-MEL-28 = system: SK-MEL-28
NCI/ADR-RES = system: NCI/ADR-RES
PC-3 = system: PC-3
COLO 205 = system: COLO 205
SR = system: SR
A498 = system: A498
CAKI-1 = system: CAKI-1
SNB-19 = system: SNB-19
SK-MEL-5 = system: SK-MEL-5
HT-29 = system: HT-29
KM12 = system: KM12
MOLT-4 = system: MOLT-4
Malme-3M = system: Malme-3M
HOP-92 = system: HOP-92
HCC 2998 = system: HCC 2998
UACC-62 = system: UACC-62
SF-268 = system: SF-268

SMILES: CC(SC(=S)N1CCOCC1)C(=O)Nc1nnc(-c2ccccc2)o1 (stereo not drawn)
- GI50 (K562): 55.1 µM (inactive)
- GI50 (SN12C): 93.3 µM (inactive)
- GI50 (OVCAR-8): > 100 µM (inactive)
- GI50 (MCF7): 60.1 µM (inactive)
- GI50 (MDA-N): > 100 µM (inactive)
- GI50 (TK-10): > 100 µM (inactive)
- GI50 (M14): > 100 µM (inactive)
- GI50 (786-0): 83.2 µM (inactive)
- GI50 (RPMI-8226): 43.1 µM (inactive)
- GI50 (HOP-62): > 100 µM (inactive)
- GI50 (NCI-H23): > 100 µM (inactive)
- GI50 (U-251): > 100 µM (inactive)
- GI50 (BT-549): > 100 µM (inactive)
- GI50 (MDA-MB-435): > 100 µM (inactive)
- GI50 (NCI-H460): > 100 µM (inactive)
- GI50 (LOX IMVI): 71.4 µM (inactive)
- GI50 (SNB-75): > 100 µM (inactive)
- GI50 (UO-31): 53.2 µM (inactive)
- GI50 (SK-MEL-2): > 100 µM (inactive)
- GI50 (HCT-116): 93.3 µM (inactive)
- GI50 (MDA-MB-231): > 100 µM (inactive)
- GI50 (Hs-578T): > 100 µM (inactive)
- GI50 (IGROV-1): 99.1 µM (inactive)
- GI50 (A549): 70 µM (inactive)
- GI50 (HCT-15): 29.7 µM
- GI50 (RXF 393): > 100 µM (inactive)
- GI50 (NCI-H522): 39.8 µM (inactive)
- GI50 (DU-145): > 100 µM (inactive)
- GI50 (HL-60): 5.05 µM (inactive)
- GI50 (T47D): 91.6 µM (inactive)
- GI50 (EKVX): > 100 µM (inactive)
- GI50 (CCRF-CEM): 4.23 µM (inactive)
- GI50 (SF-295): 88.5 µM (inactive)
- GI50 (ACHN): 97.7 µM (inactive)
- GI50 (NCI-H226): > 100 µM (inactive)
- GI50 (SK-OV-3): > 100 µM (inactive)
- GI50 (OVCAR-4): > 100 µM (inactive)
- GI50 (SW-620): 51.6 µM (inactive)
- GI50 (SF-539): > 100 µM (inactive)
- GI50 (OVCAR-3): > 100 µM (inactive)
- GI50 (UACC-257): > 100 µM (inactive)
- GI50 (OVCAR-5): > 100 µM (inactive)
- GI50 (SK-MEL-28): > 100 µM (inactive)
- GI50 (NCI/ADR-RES): 26.1 µM (inactive)
- GI50 (PC-3): 57.1 µM (inactive)
- GI50 (COLO 205): > 100 µM (inactive)
- GI50 (SR): 21.8 µM (inactive)
- GI50 (A498): > 100 µM (inactive)
- GI50 (CAKI-1): > 100 µM (inactive)
- GI50 (SNB-19): > 100 µM (inactive)
- GI50 (SK-MEL-5): 46.7 µM (inactive)
- GI50 (HT-29): 61.1 µM (inactive)
- GI50 (KM12): > 100 µM (inactive)
- GI50 (MOLT-4): 36.8 µM (inactive)
- GI50 (Malme-3M): > 100 µM (inactive)

SMILES: CC(=O)NC1=C(Sc2ccc(Cl)cc2)C(=O)c2ccccc2C1=O
- GI50 (K562): 2.56 µM (inactive)
- GI50 (SN12C): 4.67 µM (inactive)
- GI50 (OVCAR-8): 2.04 µM (inactive)
- GI50 (MCF7): 2.08 µM (inactive)
- GI50 (MDA-N): 1.76 µM (inactive)
- GI50 (TK-10): 4.42 µM (inactive)
- GI50 (786-0): 2.09 µM (inactive)
- GI50 (RPMI-8226): 1.31 µM (inactive)
- GI50 (NCI-H23): 5.28 µM (inactive)
- GI50 (U-251): 3.84 µM (inactive)
- GI50 (BT-549): 4.81 µM (inactive)
- GI50 (MDA-MB-435): 2.08 µM (inactive)
- GI50 (NCI-H460): 8.34 µM (inactive)
- GI50 (LOX IMVI): 3.55 µM (inactive)
- GI50 (UO-31): 1.95 µM (inactive)
- GI50 (SK-MEL-2): 3.88 µM (inactive)
- GI50 (MDA-MB-231): 3.04 µM (inactive)
- GI50 (Hs-578T): 10.4 µM (inactive)
- GI50 (IGROV-1): 4.84 µM (inactive)
- GI50 (A549): 11.5 µM (inactive)
- GI50 (HOP-92): 1.82 µM (inactive)
- GI50 (HCT-15): 4.15 µM
- GI50 (RXF 393): 1.86 µM (inactive)
- GI50 (NCI-H522): 0.272 µM (active)
- GI50 (DU-145): 14.6 µM (inactive)
- GI50 (HL-60): 0.285 µM (active)
- GI50 (T47D): 2.06 µM (inactive)
- GI50 (EKVX): 5.71 µM (inactive)
- GI50 (CCRF-CEM): 1.06 µM (active)
- GI50 (SF-295): 8.81 µM (inactive)
- GI50 (ACHN): 1.8 µM (inactive)
- GI50 (NCI-H226): 10.6 µM (inactive)
- GI50 (SK-OV-3): 15.7 µM (inactive)
- GI50 (OVCAR-4): 1.63 µM (inactive)
- GI50 (SW-620): 1.95 µM (inactive)
- GI50 (SF-539): 2.15 µM (inactive)
- GI50 (OVCAR-3): 2.05 µM (inactive)
- GI50 (UACC-257): 5.33 µM (inactive)
- GI50 (OVCAR-5): 11.7 µM (inactive)
- GI50 (SK-MEL-28): 2.7 µM (inactive)
- GI50 (NCI/ADR-RES): 2.37 µM (inactive)
- GI50 (PC-3): 2.77 µM (inactive)
- GI50 (HCC 2998): 14.7 µM (inactive)
- GI50 (COLO 205): 2 µM (inactive)
- GI50 (SR): 2.21 µM (inactive)
- GI50 (A498): 3.5 µM (inactive)
- GI50 (UACC-62): 2.61 µM (inactive)
- GI50 (SF-268): 2.53 µM (inactive)
- GI50 (CAKI-1): 3.7 µM (inactive)
- GI50 (SNB-19): 13.2 µM (inactive)
- GI50 (SK-MEL-5): 1.85 µM (inactive)
- GI50 (HT-29): 12.2 µM (inactive)
- GI50 (KM12): 4.75 µM (inactive)
- GI50 (MOLT-4): 0.374 µM (active)
- GI50 (Malme-3M): 2.97 µM (inactive)

SMILES: O=C(N/N=C1/C(=O)c2c3ccccc3cc3cccc1c23)c1ccccc1
- GI50 (K562): > 59.6 µM (inactive)
- GI50 (SN12C): 37.8 µM (inactive)
- GI50 (OVCAR-8): 31.1 µM (inactive)
- GI50 (MCF7): 30.4 µM (inactive)
- GI50 (MDA-N): 39.4 µM (inactive)
- GI50 (TK-10): 22.1 µM (inactive)
- GI50 (M14): 48.4 µM (inactive)
- GI50 (786-0): 19.1 µM (inactive)
- GI50 (RPMI-8226): > 80.4 µM (inactive)
- GI50 (HOP-62): 19.5 µM (inactive)
- GI50 (NCI-H23): 36.3 µM (inactive)
- GI50 (U-251): 31.6 µM (inactive)
- GI50 (BT-549): > 100 µM (inactive)
- GI50 (MDA-MB-435): 25.9 µM (inactive)
- GI50 (NCI-H460): 16.9 µM (inactive)
- GI50 (LOX IMVI): 37.9 µM (inactive)
- GI50 (SNB-75): 27.2 µM (inactive)
- GI50 (UO-31): 30.9 µM (inactive)
- GI50 (SK-MEL-2): 33.2 µM (inactive)
- GI50 (HCT-116): 30.8 µM (inactive)
- GI50 (MDA-MB-231): 42.4 µM (inactive)
- GI50 (Hs-578T): 40.6 µM (inactive)
- GI50 (IGROV-1): 25.4 µM (inactive)
- GI50 (A549): 12.2 µM (inactive)
- GI50 (HOP-92): 51.9 µM (inactive)
- GI50 (HCT-15): 49.1 µM
- GI50 (RXF 393): 22.1 µM (inactive)
- GI50 (NCI-H522): 32.7 µM (inactive)
- GI50 (DU-145): 4.49 µM (inactive)
- GI50 (HL-60): > 68.9 µM (inactive)
- GI50 (T47D): 3.69 µM (inactive)
- GI50 (EKVX): 75.7 µM (inactive)
- GI50 (CCRF-CEM): > 53.1 µM (inactive)
- GI50 (SF-295): 20.5 µM (inactive)
- GI50 (ACHN): 29.1 µM (inactive)
- GI50 (NCI-H226): > 43.8 µM (inactive)
- GI50 (SK-OV-3): 31.8 µM (inactive)
- GI50 (OVCAR-4): 20.8 µM (inactive)
- GI50 (SW-620): > 100 µM (inactive)
- GI50 (SF-539): 37.1 µM (inactive)
- GI50 (OVCAR-3): 42.3 µM (inactive)
- GI50 (UACC-257): > 62.1 µM (inactive)
- GI50 (OVCAR-5): 34.3 µM (inactive)
- GI50 (SK-MEL-28): > 54.8 µM (inactive)
- GI50 (NCI/ADR-RES): 40 µM (inactive)
- GI50 (PC-3): 26.7 µM (inactive)
- GI50 (COLO 205): > 65.6 µM (inactive)
- GI50 (SR): > 58.6 µM (inactive)
- GI50 (A498): 22.1 µM (inactive)
- GI50 (UACC-62): 26.8 µM (inactive)
- GI50 (SF-268): 30 µM (inactive)
- GI50 (CAKI-1): 26.4 µM (inactive)
- GI50 (SNB-19): 35.8 µM (inactive)
- GI50 (SK-MEL-5): 23.6 µM (inactive)
- GI50 (HT-29): 30.2 µM (inactive)
- GI50 (KM12): 16.7 µM (inactive)
- GI50 (MOLT-4): > 62.7 µM (inactive)
- GI50 (Malme-3M): 33.5 µM (inactive)
